Assay results from US9562036B2, “Fluoromethyl-substituted pyrrole carboxamides as CaV2.2 calcium channel blockers” (GRÜNENTHAL GMBH, priority 2013, dated 2017).

target: T1, Human CaV2.2 channels (Homo sapiens, UniProt Q00975); experiment: Fluorescent assay for CaV2.2 channels using potassium depolarization to induce channel opening (FLIPR, Fluo 4); format: cell-based; conditions: 3 μM test compound; 30 mM KCl alternative assay buffer (inactivated channel state); HEK293 cells; read-out: %-Inhib (CaV2.2) @3 μM @30 mM KCl
T1 construct: expressed in transfected cells; also stably expressing Kir2.3)
T1 sequence (Q00975 whole entry): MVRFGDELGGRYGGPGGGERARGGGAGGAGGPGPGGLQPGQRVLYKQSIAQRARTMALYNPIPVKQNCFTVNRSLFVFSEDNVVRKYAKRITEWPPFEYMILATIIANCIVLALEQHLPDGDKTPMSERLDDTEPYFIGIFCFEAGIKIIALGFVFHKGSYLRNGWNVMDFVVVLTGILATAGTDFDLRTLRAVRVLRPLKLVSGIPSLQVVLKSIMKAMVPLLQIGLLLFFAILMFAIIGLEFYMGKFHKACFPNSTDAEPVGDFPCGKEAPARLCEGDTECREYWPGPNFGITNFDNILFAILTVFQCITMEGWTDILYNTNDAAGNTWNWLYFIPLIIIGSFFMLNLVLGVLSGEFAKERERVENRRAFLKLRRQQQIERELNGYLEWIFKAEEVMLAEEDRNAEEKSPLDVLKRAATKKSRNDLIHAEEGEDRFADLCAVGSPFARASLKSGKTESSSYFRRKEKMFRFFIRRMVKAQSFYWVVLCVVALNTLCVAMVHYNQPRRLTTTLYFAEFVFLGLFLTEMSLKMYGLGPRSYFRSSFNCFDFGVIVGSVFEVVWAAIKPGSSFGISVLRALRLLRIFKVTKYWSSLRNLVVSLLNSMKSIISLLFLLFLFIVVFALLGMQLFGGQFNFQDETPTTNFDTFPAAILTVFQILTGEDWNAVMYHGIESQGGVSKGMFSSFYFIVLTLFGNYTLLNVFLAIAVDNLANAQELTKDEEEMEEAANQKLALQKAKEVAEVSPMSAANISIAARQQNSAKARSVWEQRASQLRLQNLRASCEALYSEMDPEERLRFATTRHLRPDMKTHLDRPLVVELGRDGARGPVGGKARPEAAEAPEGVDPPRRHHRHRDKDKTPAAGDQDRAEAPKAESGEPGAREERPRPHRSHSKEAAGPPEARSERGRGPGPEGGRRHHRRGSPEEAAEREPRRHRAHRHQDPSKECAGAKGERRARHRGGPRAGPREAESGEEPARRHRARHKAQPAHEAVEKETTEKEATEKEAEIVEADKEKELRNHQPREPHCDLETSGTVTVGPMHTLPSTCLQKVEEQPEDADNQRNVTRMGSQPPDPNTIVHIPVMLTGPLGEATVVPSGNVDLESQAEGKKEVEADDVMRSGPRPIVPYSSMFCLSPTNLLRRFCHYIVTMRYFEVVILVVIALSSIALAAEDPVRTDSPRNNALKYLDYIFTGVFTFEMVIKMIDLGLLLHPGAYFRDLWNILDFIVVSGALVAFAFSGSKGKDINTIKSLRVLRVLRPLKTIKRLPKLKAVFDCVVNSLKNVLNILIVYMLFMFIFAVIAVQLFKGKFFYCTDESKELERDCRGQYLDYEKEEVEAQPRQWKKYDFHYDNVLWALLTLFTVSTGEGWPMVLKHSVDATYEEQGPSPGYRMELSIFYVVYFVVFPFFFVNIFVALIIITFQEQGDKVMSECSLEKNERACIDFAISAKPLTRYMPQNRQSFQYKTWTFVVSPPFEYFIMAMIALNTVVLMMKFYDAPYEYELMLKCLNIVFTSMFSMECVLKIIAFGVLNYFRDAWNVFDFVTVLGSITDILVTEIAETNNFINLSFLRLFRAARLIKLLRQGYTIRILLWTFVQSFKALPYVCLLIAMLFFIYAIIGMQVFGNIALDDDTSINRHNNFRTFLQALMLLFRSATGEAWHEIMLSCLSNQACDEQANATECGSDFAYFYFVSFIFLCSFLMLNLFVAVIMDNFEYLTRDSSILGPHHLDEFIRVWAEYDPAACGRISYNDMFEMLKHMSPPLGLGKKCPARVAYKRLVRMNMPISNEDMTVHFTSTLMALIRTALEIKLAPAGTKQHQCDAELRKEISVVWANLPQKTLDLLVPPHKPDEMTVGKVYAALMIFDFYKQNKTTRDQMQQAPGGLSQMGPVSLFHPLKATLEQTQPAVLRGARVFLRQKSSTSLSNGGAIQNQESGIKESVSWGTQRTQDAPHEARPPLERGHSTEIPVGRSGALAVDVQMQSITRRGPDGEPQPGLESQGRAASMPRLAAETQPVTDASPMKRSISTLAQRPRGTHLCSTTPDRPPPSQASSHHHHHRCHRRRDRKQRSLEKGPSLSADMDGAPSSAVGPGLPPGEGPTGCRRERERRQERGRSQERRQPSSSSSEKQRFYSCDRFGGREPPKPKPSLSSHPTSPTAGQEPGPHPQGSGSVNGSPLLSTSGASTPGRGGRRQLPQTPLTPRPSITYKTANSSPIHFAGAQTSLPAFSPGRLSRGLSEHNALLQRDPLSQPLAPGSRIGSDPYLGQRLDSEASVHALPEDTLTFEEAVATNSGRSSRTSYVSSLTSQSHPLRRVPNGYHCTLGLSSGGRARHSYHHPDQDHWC
Description: In the process, the Ca^2+ influx is quantified in the FLIPR assay with the aid of a Ca^2+-sensitive dye (type Fluo-4, Molecular Probes Europe BV, Leiden, the Netherlands) in a fluorescent imaging plate reader (FLIPR 3, Molecular Devices, Sunnyvale, USA), as described hereinafter.
2. Assay Descriptions and Biological Data: 2.1 Fluorescent Assay for CaV2.2 Channels Using Potassium Depolarization to Induce Channel Opening
Human CaV2.2 channels were stably expressed in HEK293 cells together with alpha2-delta and beta subunits of voltage gated calcium channels. In addition, an inwardly rectifying potassium channel (Kir2.3) was stably expressed in these cells to augment control of the cell membrane potential by the concentration of extracellular potassium ions. Raise of the extracellular potassium concentration leads to depolarization of the membrane potential and thus regulates the voltage dependent state of CaV2.2 channels. For preparation, cells were seeded in black poly-D-lysine coated 96-well plates (Becton Dickinson, Biocoat 4640) in 100 μL medium [500 mL DMEM/F-12 plus Glutamax (Invitrogen 31331-093) plus 5.5 mL MEM NEAA 100× (Invitrogen 11140-035) plus 50 mL FBS decomplemented (Invitrogen 10270-106) plus 200 μg/mL Geneticin (Invitrogen 10131-027) plus 50 μg/mL Hygromycin B (Invitrogen 10687-010) plus 2 μg/mL Blasticidin (anti-bl5b Invivo-Gen) plus 0.2 μg/mL Puromycin (A 11138-03)] at a cell density of 30.000 cells per well. Plates were incubated at 37° C. (5% CO2) for 20 to 23 h. On the day of experiment medium was discarded and cells were loaded with Fluo 4 by addition of 100 μL of basic assay buffer (10 mM HEPES, 1 mM KCl, 149 mM NaCl, 0.8 mM CaC2, 1.7 mM MgCl2, 10 mM Glucose, 0.1% BSA. pH 7.4) containing 2 μM Fluo 4 (Molecular Probes; F-14201), 0.01% pluronic acid (Molecular Probes; P-6866) and 2.5 mM probenecid (Molecular Probes; P36400). Cells were incubated in the dark at 25° C. for 60 min. Then dye containing buffer was discarded and 100 μL basic (1 mM KCl) or alternative (30 mM KCl) assay buffer was added. The alternative assay buffer contained altered concentrations of KCl (30 mM) and NaCl (120 mM) and was used in order to promote the inactivated channel state. After that 25 μL of basic or alternative assay buffer with or without test compound were added and cells were incubated again in the dark at 25° C. for 15 min. Fluorescence intensity was measured on a FLIPR 3 instrument (Molecular Devices Corp., Sunnyvale, Calif.) with excitation at 480 nm and emission at 535 nm. After continuously reading fluorescence for 30 sec, 50 μL of basic assay buffer containing 210 mM KCl (NaCl omitted) were added for depolarization. Peak fluorescent signal intensity was determined and the amplitude of the peak signal, normalized to base line, was used to measure channel inhibition by test compounds.

With `Cc1c(-c2ccc(Cl)cn2)c(C(=O)NC(C)C)n(Cc2ccccc2)c1C(F)(F)F` [Example 53, 1-Benzyl-3-(5-chloro-pyridin-2-yl)-N-isopropyl-4-methyl-5-(trifluoromethyl)-1H-pyrrole-2-carboxylic acid amide] as the compound, how does the inhibition at 3 µM read?
The inhibition at 3 µM was 75 to 95%.

With `Cc1c(-c2ncc(Cl)cn2)c(C(=O)N(C)C(C)C)n(Cc2ccccc2)c1C(F)(F)F` [Example 54, 1-Benzyl-3-(5-chloro-pyrimidin-2-yl)-N-isopropyl-N,4-dimethyl-5-(trifluoromethyl)-1H-pyrrole-2-carboxylic acid amide] as the compound, how does the inhibition at 3 µM read?
Its inhibition at 3 µM is over 95%.

How did the inhibition at 3 µM turn out when `Cc1c(-c2ncc(C3CC3)cn2)c(C(=O)N(C)C(C)C)n(Cc2ccccc2)c1C(F)(F)F` [Example 56, 1-Benzyl-3-(5-cyclopropyl-pyrimidin-2-yl)-N-isopropyl-N,4-dimethyl-5-(trifluoromethyl)-1H-pyrrole-2-carboxylic acid amide] was run?
Its inhibition at 3 µM is over 95%.

With `Cc1c(-c2ncc(Cl)cn2)c(C(=O)N(C)CC(C)(C)C(=O)N(C)C)n(Cc2ccccc2)c1C(F)(F)F` [Example 58, 1-Benzyl-3-(5-chloro-pyrimidin-2-yl)-N-[2-(dimethyl-carbamoyl)-2-methyl-propyl]-N,4-dimethyl-5-(trifluoromethyl)-1H-pyrrole-2-carboxylic acid amide] as the compound, how does the inhibition at 3 µM read?
The inhibition at 3 µM was over 95%.

How did the inhibition at 3 µM turn out when `Cc1c(-c2ncc(Cl)cc2[S+](C)[O-])c(C(=O)N(C)C(C)C)n(Cc2ccccc2)c1C(F)(F)F` (centres unmarked) [Example 61, 1-Benzyl-3-[5-chloro-3-(methylsulfinyl)-pyridin-2-yl]-N-isopropyl-N,4-dimethyl-5-(trifluoromethyl)-1H-pyrrole-2-carboxylic acid amide] was run?
Its inhibition at 3 µM is 75 to 95%.
